The results in this text go back to patent publication US20070299062A1 (The Procter & Gamble Company, priority 2006, published 2007).

Like-named read-outs stand apart in the source and are kept apart here. Where only a bound is given, the exact number is not on record here.

One experiment has as its target T1, 5-HT2c receptor (Homo sapiens, UniProt P28335).
T1 construct: purchased Perkin-Elmer or Euroscreen (named only as possible suppliers)
T1 sequence (P28335 33-458): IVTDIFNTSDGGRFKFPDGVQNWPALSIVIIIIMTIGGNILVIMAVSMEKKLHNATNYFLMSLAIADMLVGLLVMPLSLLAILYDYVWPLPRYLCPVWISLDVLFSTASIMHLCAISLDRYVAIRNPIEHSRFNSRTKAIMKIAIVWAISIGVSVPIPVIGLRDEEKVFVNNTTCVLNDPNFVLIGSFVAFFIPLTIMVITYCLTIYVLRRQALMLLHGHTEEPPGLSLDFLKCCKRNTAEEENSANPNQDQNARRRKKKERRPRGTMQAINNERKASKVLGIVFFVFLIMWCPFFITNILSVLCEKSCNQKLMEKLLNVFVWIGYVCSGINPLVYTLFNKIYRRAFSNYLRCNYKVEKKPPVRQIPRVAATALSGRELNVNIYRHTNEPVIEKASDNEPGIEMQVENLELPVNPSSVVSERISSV
Kind of experiment: 5-HT2c receptor binding assay (3H-mesulergine competition). The protocol:
MCH antagonist compounds are evaluated for binding to the serotonin 5-HT2c receptor to determine receptor selectivity. Binding activity is assessed using a competitive assay with ^3H-mesulergine (Perkin Elmer), a 5-HT2c selective ligand, on membrane containing the 5-HT2c receptor. Briefly, 1 nM ^3H-mesulergine and varying concentrations of the compound are incubated with 5-HT2c receptor membranes, following an incubation period, the membranes are washed and ^3H-mesulergine bound to membranes is measured in a liquid scintillation counter. The amount of bound ^3H-mesulergine at the varying concentration of competitor compound is used to derive the affinity (Ki) of the compound for the 5-HT2c receptor. 5-HT2c receptor containing membranes are readily available from several companies including Perkin-Elmer and Euroscreen.

Another experiment addresses MCH-1R (UniProt Q99705). As to the kind of experiment: MCH-1R competition binding assay. The protocol: In vitro binding and function assays are performed on membranes derived from cells or tissues expressing endogenous MCH1R. Competition binding assays are performed to identify high affinity compounds. Briefly, either radiolabeled or europium labeled MCH with varying concentrations of competitor compound which are incubated with membranes expressing the receptor. Rat brain membrane or cell lines, including but not limited to human Kelly neuroblastoma cells, A-431 epidermoid cells, and rat PC-12 cells are known to express endogenous MCH1R and are used in the assay. Binding is allowed to proceed until equilibrium is reached then bound labeled MCH is separated from free MCH by capturing membranes onto a filter. The filters are washed to remove loosely associated MCH and labeled MCH is quantified. Data is analyzed and IC50 and Ki are calculated to determine compound affinity.

Where [1] appears, read: 1 nM 3H-mesulergine, read-out: Ki (nM) binding data 5-HT2C.

In the case of `CS(=O)(=O)N1CCN(Cc2ccc3c(c2)CC[C@H](n2cnc4cc(-c5cncc(Cl)c5)sc4c2=O)C3)CC1`, the Ki is above 100000 nM at 5-HT2c receptor and 21 nM at MCH-1R.

In the case of `COc1ncccc1-c1cc2ncn([C@H]3CCc4cc(CN5CCN(S(C)(=O)=O)CC5)ccc4C3)c(=O)c2s1`, the Ki was above 100000 nM at 5-HT2c receptor (setting [1]) and 373 nM on MCH-1R.

As to `O=c1c2sc(-c3ccc(Cl)cc3)cc2ncn1[C@H]1CCc2cc(CN3CCCCC3)ccc2C1` [(S)-6-(4-Chlorophenyl)-3-(6-piperidin-1-ylmethyl-1,2,3,4-tetrahydronaphthalen-2-yl)thieno[3,2-d]pyrimidin-4(3H)-one], the inhibition constant (Ki) on 5-HT2c receptor (setting [1]) is 3730 nM; at MCH-1R, 24.3 nM.

For the molecule `CS(=O)(=O)N1CCN(Cc2ccc3c(c2)CC[C@H](n2cnc4cc(-c5ccc(F)cc5F)sc4c2=O)C3)CC1`, the Ki is above 100000 nM on 5-HT2c receptor (setting [1]) and 7.6 nM on MCH-1R.

Turning to `CC(=O)N1CCN(Cc2ccc3c(c2)CC[C@H](n2cnc4cc(-c5ccc(F)cc5F)sc4c2=O)C3)CC1` [(S)-3-[6-(4-Acetylpiperazin-1-ymethyl)-1,2,3,4-tetrahydronapthalen-2-yl]-6-(2,4-difluorophenyl)thieno[3,2-d]pyrimidin-4(3H)-one], the Ki on 5-HT2c receptor (setting [1]) is above 100000 nM; on MCH-1R, 8.4 nM.

As to `CC(=O)N1CCN(Cc2ccc3c(c2)CC[C@H](n2cnc4cc(-c5ccc(F)cc5)sc4c2=O)C3)CC1` [(S)-3-[6-(4-Acetylpiperazin-1-ymethyl)-1,2,3,4-tetrahydronapthalen-2-yl]-6-(4-fluorophenyl)thieno[3,2-d]pyrimidin-4(3H)-one], the Ki turned out to be 6360 nM at 5-HT2c receptor (setting [1]) and 9.4 nM at MCH-1R.

Regarding `CCN(CC)Cc1ccc2c(c1)CC[C@H](n1cnc3cc(-c4ccc(Cl)cc4)sc3c1=O)C2` [(S)-6-(4-Chlorophenyl)-3-(6-diethylaminomethyl-1,2,3,4-tetrahydronaphthalen-2-yl)-4a,7a-dihydro-3H-thieno[3,2-d]pyrimidin-4-one], the figures for the Ki on 5-HT2c receptor and at MCH-1R were 6780 nM and 13 nM, respectively.

Consider `O=c1c2sc(-c3ccc(Cl)cc3)cc2ncn1[C@H]1CCc2cc(CNC(CO)CO)ccc2C1` [6-(4-Chlorophenyl)-3-{(S)-6-[(2-hydroxy-1-hydroxymethylethylamino)methyl]-1,2,3,4-tetrahydronapthealen-2-yl}thieno[3,2-d]pyrimidin-4(3H)-one], for which the Ki on 5-HT2c receptor (setting [1]) was above 100000 nM; on MCH-1R it was 10.7 nM.

As for `CC(=O)N1CCN(Cc2ccc3c(c2)CC[C@H](n2cnc4cc(-c5ccc(Cl)c(Cl)c5)sc4c2=O)C3)CC1` [(S)-3-[6-(4-Acetylpiperazin-1-ymethyl)-1,2,3,4-tetrahydronapthalen-2-yl]-6-(3,4-dichlorophenyl)thieno[3,2-d]pyrimidin-4(3H)-one], the Ki was above 100000 nM at 5-HT2c receptor (setting [1]) and 54.5 nM at MCH-1R.

Consider `CS(=O)(=O)N1CCN(Cc2ccc3c(c2)CC[C@H](n2cnc4cc(-c5cccc(C#N)c5)sc4c2=O)C3)CC1`, for which the figures for the Ki on 5-HT2c receptor (setting [1]) and on MCH-1R were above 100000 nM and 310 nM, respectively.

Consider `CS(=O)(=O)N1CCN(Cc2ccc3c(c2)CC[C@H](n2cnc4cc(-c5cncc(F)c5)sc4c2=O)C3)CC1`, for which the Ki at 5-HT2c receptor was above 100000 nM; on MCH-1R, 13.4 nM.

In the case of `CS(=O)(=O)CCNCc1ccc2c(c1)CC[C@H](n1cnc3cc(-c4ccc(Cl)cc4)sc3c1=O)C2` [6-(4-Chlorophenyl)-3-{(S)-6-[(2-methanesulfonyl-ethylamino)methyl]-1,2,3,4-tetrahydronapthealen-2-yl}thieno[3,2-d]pyrimidin-4(3H)-one], the Ki was above 100000 nM on 5-HT2c receptor (setting [1]) and 22.6 nM at MCH-1R.

As for `CS(=O)(=O)N1CCN(Cc2ccc3c(c2)CC[C@H](n2cnc4cc(-c5cccs5)sc4c2=O)C3)CC1`, the Ki is above 100000 nM on 5-HT2c receptor (setting [1]) and 122 nM on MCH-1R.

For `CC(=O)N1CCN(Cc2ccc3c(c2)CC[C@H](n2cnc4cc(-c5cccs5)sc4c2=O)C3)CC1` [(S)-3-[6-(4-Acetylpiperazin-1-ymethyl)-1,2,3,4-tetrahydronapthalen-2-yl]-6-(thien-2-yl)thieno[3,2-d]pyrimidin-4(3H)-one], the Ki is 1760 nM at 5-HT2c receptor (setting [1]) and 270 nM on MCH-1R.

For the molecule `CC(=O)N1CCN(Cc2ccc3c(c2)CC[C@H](n2cnc4cc(-c5cc(F)cc(F)c5)sc4c2=O)C3)CC1` [(S)-3-[6-(4-Acetylpiperazin-1-ymethyl)-1,2,3,4-tetrahydronapthalen-2-yl]-6-(3,5-difluorophenyl)thieno[3,2-d]pyrimidin-4(3H)-one], the Ki on 5-HT2c receptor (setting [1]) was above 100000 nM; at MCH-1R, 369 nM.

`CC(=O)N1CCN(Cc2ccc3c(c2)CC[C@H](n2cnc4cc(-c5cccnc5)sc4c2=O)C3)CC1` [(S)-3-[6-(4-Acetylpiperazin-1-ymethyl)-1,2,3,4-tetrahydronapthalen-2-yl]-6-(pyridin-3-yl)thieno[3,2-d]pyrimidin-4(3H)-one]: the Ki on 5-HT2c receptor (setting [1]) is above 100000 nM; at MCH-1R, 1930 nM.

With `CS(=O)(=O)N1CCN(Cc2ccc3c(c2)CC[C@H](n2cnc4cc(-c5ccc(F)c(F)c5)sc4c2=O)C3)CC1`, the Ki is above 100000 nM at 5-HT2c receptor (setting [1]) and 39.3 nM at MCH-1R.

In the case of `O=c1c2sc(-c3ccc(Cl)cc3)cc2ncn1[C@H]1CCc2cc(CN3CCCC3)ccc2C1` [(S)-6-(4-Chlorophenyl)-3-(6-pyrrolidin-1-ylmethyl-1,2,3,4-tetrahydronaphthalen-2-yl)thieno[3,2-d]pyrimidin-4(3H)-one], the inhibition constant (Ki) at 5-HT2c receptor (setting [1]) is 3730 nM; on MCH-1R it was 13.7 nM.

Consider `O=c1c2sc(-c3ccc(Cl)cc3)cc2ncn1[C@H]1CCc2cc(CN3CC[C@H](O)C3)ccc2C1` [6-(4-Chlorophenyl)-3-{(S)-6-[((S)-3-hydroxypyrrolidin-1-yl)methyl]-1,2,3,4-tetrahydronaphthalen-2-yl}thieno[3,2-d]pyrimidin-4(3H)-one], for which the Ki was 9550 nM on 5-HT2c receptor (setting [1]) and 24 nM at MCH-1R.

As to `CC(=O)N1CCN(Cc2ccc3c(c2)CC[C@H](n2cnc4cc(-c5ccncc5)sc4c2=O)C3)CC1` [(S)-3-[6-(4-Acetylpiperazin-1-ymethyl)-1,2,3,4-tetrahydronapthalen-2-yl]-6-(pyridin-4-yl)thieno[3,2-d]pyrimidin-4(3H)-one], the values for the Ki at 5-HT2c receptor (setting [1]) and at MCH-1R were 8090 nM and 988 nM, respectively.

Consider `CC(=O)N1CCN(Cc2ccc3c(c2)CC[C@H](n2cnc4cc(-c5ccsc5)sc4c2=O)C3)CC1` [(S)-3-[6-(4-Acetylpiperazin-1-ymethyl)-1,2,3,4-tetrahydronapthalen-2-yl]-6-(thien-3-yl)thieno[3,2-d]pyrimidin-4(3H)-one], for which the results for the Ki at 5-HT2c receptor (setting [1]) and on MCH-1R were 2010 nM and 137 nM, respectively.

As to `CN(C)Cc1ccc2c(c1)CC[C@H](n1cnc3cc(-c4ccc(Cl)cc4)sc3c1=O)C2` [6-(4-Chlorophenyl)-3-((S)-6-dimethylaminomethyl-1,2,3,4-tetrahydronapthealen-2-yl)thieno[3,2-d]pyrimidin-4(3H)-one], the values for the Ki on 5-HT2c receptor (setting [1]) and on MCH-1R were 3170 nM and 7.4 nM, respectively.

As for `COc1cncc(-c2cc3ncn([C@H]4CCc5cc(CN6CCN(S(C)(=O)=O)CC6)ccc5C4)c(=O)c3s2)c1`, the Ki on 5-HT2c receptor is above 100000 nM; on MCH-1R, 17.9 nM.

Turning to `COc1ccc(-c2cc3ncn([C@H]4CCc5cc(CN6CCN(C(C)=O)CC6)ccc5C4)c(=O)c3s2)cc1` [(S)-3-[6-(4-Acetylpiperazin-1-ymethyl)-1,2,3,4-tetrahydronapthalen-2-yl]-6-(4-methoxyphenyl)thieno[3,2-d]pyrimidin-4(3H)-one], the Ki on 5-HT2c receptor (setting [1]) is above 100000 nM; at MCH-1R, 65.2 nM.

As to `CS(=O)(=O)N1CCN(Cc2ccc3c(c2)CC[C@H](n2cnc4cc(-c5ccnc(Cl)c5)sc4c2=O)C3)CC1`, the Ki at 5-HT2c receptor (setting [1]) was above 100000 nM; on MCH-1R it was 157 nM.

Turning to `CS(=O)(=O)N1CCN(Cc2ccc3c(c2)CC[C@H](n2cnc4cc(-c5cc(F)cc(F)c5)sc4c2=O)C3)CC1`, the Ki was above 100000 nM at 5-HT2c receptor (setting [1]) and 117 nM at MCH-1R.

As to `CNCc1ccc2c(c1)CC[C@H](n1cnc3cc(-c4ccc(Cl)cc4)sc3c1=O)C2` [6-(4-Chlorophenyl)-3-((S)-6-methylaminomethyl-1,2,3,4-tetrahydronapthealen-2-yl)thieno[3,2-d]pyrimidin-4(3H)-one], the figures for the Ki at 5-HT2c receptor (setting [1]) and on MCH-1R were 2140 nM and 0.4 nM, respectively.

As for `CC(=O)N1CCN(Cc2ccc3c(c2)CC[C@H](n2cnc4cc(-c5cncc(Cl)c5)sc4c2=O)C3)CC1` [(S)-3-[6-(4-Acetylpiperazin-1-ymethyl)-1,2,3,4-tetrahydronapthalen-2-yl]-6-(5-chloropyridin-3-yl)thieno[3,2-d]pyrimidin-4(3H)-one], the Ki is above 100000 nM at 5-HT2c receptor (setting [1]) and 38 nM on MCH-1R.

As usually defined, the Ki is the dissociation constant of the complex between target and ligand, obtained from inhibition or displacement.
